Experiments:
[1] = system: Wistar rats; experiment: Liver growth in cholestatic (rBDL) rats prior to partial hepatectomy (Example 6); format: in vivo, rat; details: prior to PHx
Source text: After the acclimatization period, the rats either continued on a regular chow diet or were switched to a methionine and choline-deficient (MCD) diet (Harlan Teklad, Madison, Wis.) for 3 weeks to induce moderate hepatic steatosis [Heger 2011a]. At the start of the second diet week, the rats either underwent sham surgery or were subjected to reversible bile duct ligation (rBDL). For rBDL, the extrahepatic bile duct was cannulated with a polyethylene catheter (length=±1.5 cm, inner diameter=0.4 mm, outer diameter=0.9 mm, Braun, Melsungen, Germany) connected to Silastic Tubing with a closed distal tip (length=±7.5 cm, inner diameter=0.8 mm, outer diameter=1.4 mm, Dow Corning, Midland, Mich.) [Kloek 2008]. Sham-operated animals underwent abdominal surgery, including bile duct mobilization, without inducing a biliary obstruction. Groups of rBDL rats were left untreated or received a daily oral gavage of the FXR agonist obeticholic acid (OCA, 10 mg/kg in 0.5% methylcellulose, 1.5 mL per 300 g body weight) between 7:30 and 9:00 AM.
Seven days after BDL or sham operation, all rats were subjected to 70% PHx [DeGraaf 2011]. […]
At baseline (i.e., directly before PHx) and one to five days after PHx, animals were euthanized under isoflurane anesthesia by exsanguination. […] Liver regrowth was calculated from the regenerated liver mass, and was expressed as percentage of total liver mass prior to PHx. The projected remnant liver mass was calculated using the weight of the resected liver segments, which represent 70% of the total liver mass. Dry liver weights were measured to correct for hepatic water content [Kloek 2010a].
After formalin fixation, liver specimens were dehydrated, paraffin-embedded, and stained with hematoxylin and eosin (H&E), the collagen type I and III stain picrosirius red, or the proliferation marker Ki67 [Marsman 2013]. Semi-quantitative analysis of H&E- and picrosirius red-stained liver histology was performed by an experienced hepatopathologist (JV) blinded to the experimental groups using a scoring system detailed in Table 1. […]

[2] = system: Adult female rabbits; experiment: PVE in rabbits: CLV and bile salts (Example 5a); format: in vivo, rabbit; details: day 3 after PVE
Procedure: (§1) Adult female rabbits received vehicle or the FXR agonist obeticholic acid (OCA; 10 mg/kg, daily oral gavage) for 7 days prior to, and after embolization (day 0) of the cranial liver lobes. Effectiveness of PVE was confirmed by portography, and caudal liver volume (CLV) was analyzed by CT-volumetric analysis at days −7, −1, +3 and +7. Rabbits were sacrificed at day +3 and +7 (n=5-6 per group).

[3] = system: mice; details: 2 years, 25 mg/kg; cited from earlier work
[4] = system: Wistar rats; experiment: Liver regrowth after 70% partial hepatectomy in post-cholestatic rats (Example 6); format: in vivo
Source text: Seven days after BDL or sham operation, all rats were subjected to 70% PHx [DeGraaf 2011]. In all rBDL rats, intestinal bile flow was restored directly prior to PHx by removing the closed cannula tip and inserting the cannula into the duodenum. Animals in all treatment groups were put on regular chow after PHx. OCA treatment was continued after PHx until sacrifice. As depicted in Scheme 1, the study consisted of five experimental groups (n=4-6 animals per group per time point): control (sham), steatosis (MCD), cholestasis (rBDL), combined steatosis and cholestasis (rBDL+MCD), and cholestasis+OCA (rBDL+OCA).
At baseline (i.e., directly before PHx) and one to five days after PHx, animals were euthanized under isoflurane anesthesia by exsanguination. Blood samples were collected from the caval vein in heparin-anticoagulated vacutainers (BD, Franklin Lakes, N.J.) and centrifuged for 10 min (3000×g, 4° C.). In rBDL animals sacrificed at baseline, bile was aspirated with a syringe from the dilated extrahepatic bile duct, weighed, and stored at −80° C. The liver and ileum were excised, weighed, loafed, and either fixed in a 10% (vol/vol) neutralized formalin solution (J. T. Baker, Center Valley, Pa.), snap-frozen in liquid nitrogen and stored at −80° C., or collected in RNAlater (Qiagen, Venlo, the Netherlands) and stored at −20° C. Liver regrowth was calculated from the regenerated liver mass, and was expressed as percentage of total liver mass prior to PHx. The projected remnant liver mass was calculated using the weight of the resected liver segments, which represent 70% of the total liver mass. Dry liver weights were measured to correct for hepatic water content [Kloek 2010a].
After formalin fixation, liver specimens were dehydrated, paraffin-embedded, and stained with hematoxylin and eosin (H&E), the collagen type I and III stain picrosirius red, or the proliferation marker Ki67 [Marsman 2013]. Semi-quantitative analysis of H&E- and picrosirius red-stained liver histology was performed by an experienced hepatopathologist (JV) blinded to the experimental groups using a scoring system detailed in Table 1. Ki67-positive hepatocyte nuclei were manually counted by two observers (RFG and PBO) in four randomly-selected microscopic fields at 200× magnification.

[5] = system: FXR; experiment: Bile salt homeostasis/proliferation related transcript levels in liver after PVE (Example 5a); format: in vivo, rabbit
Procedure: as §1

[6] = system: New Zealand White rabbits; experiment: Liver injury after PVE: clinical chemistry and H&E histology (Example 5); format: in vivo, rabbit
Procedure: Liver tissue (left lateral and caudal lobes) was fixed in buffered formalin for 48 h, and subsequently dehydrated and embedded in paraffin. Four-micron sections of liver tissue were cut and stained with standard hematoxylin and eosin stain. Sections were scored for lobular and portal inflammation according to Table 1. Additionally, liver sections were stained with Ki67 antibodies to quantify hepatocyte proliferation, and hematoxylin counterstain as described in detail previously (van der Loos C M, et al. J Histochern Cytochern 2013; 61(1):11-8; Marsman H A, et al. Br J Surg 2013; 100(5):674-83). Ki67-positive hepatocytes were counted in a total of five high power fields per animal, by a hepatopathologist (JV) blinded to the group allocation. Liver histology was assessed at day 3 and 7 for n=6 per treatment group.
Serum alanine transaminase (ALT), amino aspartate aminotransferase (AST), gamma-glutamyl transferase (γGT), and alkaline phosphatase (ALP) were determined by the Department of Clinical Chemistry (Academic Medical Center, Amsterdam, The Netherlands) using a Cobas 8000 modular analyzer (Roche, Basel, Switzerland) on samples obtained from 12 animals per treatment group.

[7] = system: FXR; experiment: FXR target gene expression in terminal ileum and liver by RT-qPCR (Example 5); format: in vivo, rabbit
Procedure: Total RNA was isolated from terminal ileum and (non)embolized liver lobes using Tri Reagent (Ambion). Following treatment with DNAseI (Promega, Leiden, the Netherlands), 750 ng total RNA was converted to cDNA using the iSCRIPT cDNA synthesis kit (BioRad, Veenendaal, the Netherlands). Quantitative RT-PCR (real-time polymerase chain reaction) was performed on an IQ5 Cycler using SYBR Green chemistry (SYBR Green MasterMix, BioRad) and cDNA equivalent to 7.5 ng total RNA as template. Expression levels were calculated using LinReg software (Ramakers C, et al. Neurosci Lett 2003; 339(1):62-6) and normalized to the geometric mean of Rplp0, Hprt and Gapdh. Predicted product size was checked by agarose gel electrophoresis. PCR analysis was performed using tissue obtained at day 3 and 7 for n=6 per treatment group.

SMILES: CC[C@H]1[C@@H](O)[C@@H]2[C@H](CC[C@]3(C)[C@@H]([C@H](C)CCC(=O)O)CC[C@@H]23)[C@@]2(C)CC[C@@H](O)C[C@@H]12 [Compound 1, 3α,7α-dihydroxy-6α-ethyl-5β-cholanic acid]
- liver mass corrected for hepatic water content (dry weight) ([1]; 7 days rBDL): increased liver mass
- gross liver mass vs control group ([1]; 7 days rBDL, 10 mg/kg daily oral): higher
- hepatocyte proliferation measured by Ki67 staining ([1]; vs untreated rBDL or non-cholestatic animals): more pronounced
- increase in CLV [2]: 59.3±19.2%
- malignant transformation [3]: does not lead to malignant transformation
- dry weight of the remnant liver ([4]; at the time of PHx, vs other two groups): higher
- number of Ki67+ hepatocytes ([4]; day one after PHx): highest
- mortality ([4]; regeneration phase): no mortality
- liver regrowth after 70% PHx ([4]; vs untreated rBDL and control rats): stalled
- expression of Cdc25b vs controls ([5]; atrophic liver segments): +1.1 fold
- expression of Cdc25b vs controls ([5]; hypertrophic liver segments): +1.6 fold
- expression of Cyp7a1 vs controls ([5]; hypertrophied segments, day +3): −7.1 fold
- expression of Slc51b vs controls ([5]; hypertrophied segments, day +3): +6.5 fold
- plasma ALP vs vehicle ([6]; after PVE): slightly higher
- plasma γGT vs vehicle ([6]; after PVE): slightly higher
- hepatocellular injury or cholestasis ([6]; conclusion from ALT, AST, γGT, ALP): did not cause hepatocellular injury or cholestasis
- histological scoring of H&E sections of the caudal lobe ([6]; day 3 and 7, vs vehicle, listed as OCA): no differences between groups
- plasma transaminase levels vs vehicle ([6]; summary): similar
- hepatic βKlotho transcript level ([7]; after three days): minor downregulation
- hepatic Shp expression ([7]; caudal liver): without transcriptional induction
- hepatic expression of Fgfr4 ([7]; caudal liver): not affected
- hepatic expression of Cyp7a1 ([7]; caudal liver, day +3): strongly suppressed
- Ostβ expression in the liver ([7]; day +3): elevated
- ileal Shp expression ([7]; day +3): induction
- hepatic Fxr expression ([7]; day +7): reduced
- FXR activation (aggregated gene expression analysis) ([7]; ileum and liver, listed as OCA): activation of both ileal and hepatic FXR
- ileal expression of Fxr ([7]; terminal ileum): no effect
- ileal expression of Ostβ ([7]; terminal ileum): not affected

From US10548906B2, “Methods of promoting hepatic regeneration” (Intercept Pharmaceuticals, Inc., priority 2015, dated 2020)
